Legend:
Type in all cases: in vivo
[1] = test system: pigweed (Amaranthus retroflexus); test: Test C preemergence; settings: Amaranthus retroflexus, pre-emergence, 336 h, scale 0 to 100, read-out: Plant response rating, Pigweed
In short: (§1)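 Seeded loam-sand soil (preemergence) or young potted plants of 2-18 cm (postemergence) received test chemical formulated with surfactant in a non-phytotoxic solvent. Pots were kept in the greenhouse for 13-15 days before a visual 0-100 control rating relative to controls.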

[2] = test system: johnsongrass (Sorghum halepense); test: Test C preemergence; settings: Sorghum halepense, pre-emergence, 336 h, scale 0 to 100, read-out: Plant response rating, Johnsongrass
In short: as §1

[3] = test system: morningglory (Ipomoea coccinea); test: Test C preemergence; settings: Ipomoea, pre-emergence, 336 h, scale 0 to 100, read-out: Plant response rating, Morningglory
In short: as §1

[4] = test system: pigweed (Amaranthus retroflexus); test: Test C postemergence; settings: Amaranthus retroflexus, post-emergence, 336 h, Postemergence, scale 0 to 100, read-out: Plant response rating, Pigweed
In short: as §1

[5] = test system: barnyardgrass (Echinochloa crus-galli); test: Test C postemergence; settings: Echinochloa crus-galli, post-emergence, Postemergence, scale 0 to 100, read-out: Plant response rating, Barnyardgrass
In short: as §1

[6] = test system: galium (catchweed bedstraw, Galium aparine); test: Test C postemergence; settings: Galium, post-emergence, 336 h, Postemergence, scale 0 to 100, read-out: Plant response rating, Galium
In short: as §1

[7] = test system: large (Lg) crabgrass (Digitaria sanguinalis); test: Test C postemergence; settings: Digitaria sanguinalis, post-emergence, 336 h, Postemergence, scale 0 to 100, read-out: Plant response rating, Crabgrass, Large
In short: as §1

[8] = test system: winter wheat (Triticum aestivum); test: Test C postemergence; settings: Triticum aestivum, post-emergence, 336 h, Postemergence, scale 0 to 100, read-out: Plant response rating, Wheat
In short: as §1

[9] = test system: ragweed (common ragweed, Ambrosia elatior); test: Test C postemergence; settings: Ambrosia artemisiifolia, post-emergence, 336 h, Postemergence, scale 0 to 100, read-out: Plant response rating, Ragweed
In short: as §1

[10] = test system: lambsquarters (Chenopodium album); test: Test C postemergence; settings: Chenopodium album, post-emergence, 336 h, Postemergence, scale 0 to 100, read-out: Plant response rating, Lambsquarters
In short: as §1

[11] = test system: yellow nutsedge (Cyperus esculentus); test: Test C postemergence; settings: Cyperus, post-emergence, 336 h, Postemergence, scale 0 to 100, read-out: Plant response rating, Nutsedge, Yellow
In short: as §1

[12] = test system: chickweed (common chickweed, Stellaria media); test: Test C postemergence; settings: Stellaria media, post-emergence, Postemergence, scale 0 to 100, read-out: Plant response rating, Chickweed
In short: as §1

[13] = test system: blackgrass (Alopecurus myosuroides); test: Test C postemergence; settings: Alopecurus myosuroides, post-emergence, 336 h, Postemergence, scale 0 to 100, read-out: Plant response rating, Blackgrass
In short: as §1

[14] = test system: corn (Zea mays); test: Test C postemergence; settings: Zea mays, post-emergence, 336 h, Postemergence, scale 0 to 100
In short: as §1

[15] = test system: kochia (Kochia scoparia); test: Test C postemergence; settings: Bassia scoparia, post-emergence, Postemergence, scale 0 to 100, read-out: Plant response rating, Kochia
In short: as §1

[16] = test system: soybean (Glycine max); test: Test C postemergence; settings: Glycine max, post-emergence, Postemergence, scale 0 to 100, read-out: Plant response rating, Soybean
In short: as §1

[17] = test system: oilseed rape (Brassica napus); test: Test C postemergence; settings: Brassica napus, post-emergence, Postemergence, scale 0 to 100, read-out: Plant response rating, Oilseed Rape
In short: as §1

[18] = test system: giant foxtail (Setaria faberii); test: Test C postemergence; settings: Setaria faberi, post-emergence, 336 h, Postemergence, scale 0 to 100, read-out: Plant response rating, Foxtail, Giant
In short: as §1

[19] = test system: johnsongrass (Sorghum halepense); test: Test C postemergence; settings: Sorghum halepense, post-emergence, 336 h, Postemergence, scale 0 to 100, read-out: Plant response rating, Johnsongrass
In short: as §1

[20] = test system: velvetleaf (Abutilon theophrasti); test: Test C postemergence; settings: Abutilon theophrasti, post-emergence, Postemergence, scale 0 to 100, read-out: Plant response rating, Velvetleaf
In short: as §1

[21] = test system: morningglory (Ipomoea coccinea); test: Test C postemergence; settings: Ipomoea, post-emergence, 336 h, Postemergence, scale 0 to 100, read-out: Plant response rating, Morningglory
In short: as §1

[22] = test system: waterhemp (common waterhemp, Amaranthus rudis); test: Test C postemergence; settings: Amaranthus tuberculatus, post-emergence, Postemergence, scale 0 to 100, read-out: Plant response rating, Waterhemp
In short: as §1

Fc1cccc(Oc2ncc(Cl)cn2)c1Oc1ncc(C(F)(F)F)cn1 [Compound 43, 5-chloro-2-[5-fluoro-6-[[5-(trifluoromethyl)-2-pyrimidinyl]oxy]phenoxy]pyrimidine]
pest or weed control at 31 g/ha ([1]; 31 g ai/ha, preemergence): 100% | pest or weed control at 62 g/ha ([1]; 62 g ai/ha, preemergence): 100% | pest or weed control at 125 g/ha ([1]; 125 g ai/ha, preemergence): 100% | pest or weed control at 16 g/ha ([1]; Preemergence, 16 g ai/ha): 100% | pest or weed control at 31 g/ha ([2]; 31 g ai/ha, preemergence): 75% | pest or weed control at 62 g/ha ([2]; 62 g ai/ha, preemergence): 100% | pest or weed control at 125 g/ha ([2]; 125 g ai/ha, preemergence): 100% | pest or weed control at 16 g/ha ([2]; Preemergence, 16 g ai/ha): 20% | pest or weed control at 31 g/ha ([3]; 31 g ai/ha, preemergence): 85% | pest or weed control at 62 g/ha ([3]; 62 g ai/ha, preemergence): 100% | pest or weed control at 125 g/ha ([3]; 125 g ai/ha, preemergence): 100% | pest or weed control at 16 g/ha ([3]; Preemergence, 16 g ai/ha): 70% | pest or weed control at 31 g/ha ([4]; 31 g ai/ha): 85% | pest or weed control at 62 g/ha ([4]; 62 g ai/ha): 90% | pest or weed control at 125 g/ha ([4]; 125 g ai/ha): 98% | pest or weed control at 16 g/ha ([5]; 16 g ai/ha): 5% | pest or weed control at 31 g/ha ([5]; 31 g ai/ha): 5% | pest or weed control at 62 g/ha ([5]; 62 g ai/ha): 10% | pest or weed control at 125 g/ha ([5]; 125 g ai/ha): 35% | pest or weed control at 16 g/ha ([6]; 16 g ai/ha): 35% | pest or weed control at 31 g/ha ([6]; 31 g ai/ha): 80% | pest or weed control at 62 g/ha ([6]; 62 g ai/ha): 85% | pest or weed control at 125 g/ha ([6]; 125 g ai/ha): 90% | pest or weed control at 16 g/ha ([7]; 16 g ai/ha): 5% | pest or weed control at 31 g/ha ([7]; 31 g ai/ha): 5% | pest or weed control at 62 g/ha ([7]; 62 g ai/ha): 10% | pest or weed control at 125 g/ha ([7]; 125 g ai/ha): 40% | plant injury at 31 g/ha ([8]; 31 g ai/ha): 0% | plant injury at 62 g/ha ([8]; 62 g ai/ha): 0% | plant injury at 125 g/ha ([8]; 125 g ai/ha): 5% | pest or weed control at 31 g/ha ([9]; 31 g ai/ha): 75% | pest or weed control at 62 g/ha ([9]; 62 g ai/ha): 65% | pest or weed control at 125 g/ha ([9]; 125 g ai/ha): 80% | pest or weed control at 16 g/ha ([10]; 16 g ai/ha): 60% | pest or weed control at 31 g/ha ([10]; 31 g ai/ha): 80% | pest or weed control at 62 g/ha ([10]; 62 g ai/ha): 90% | pest or weed control at 125 g/ha ([10]; 125 g ai/ha): 95% | pest or weed control at 31 g/ha ([11]; 31 g ai/ha): 0% | pest or weed control at 62 g/ha ([11]; 62 g ai/ha): 0% | pest or weed control at 125 g/ha ([11]; 125 g ai/ha): 5% | pest or weed control at 16 g/ha ([12]; 16 g ai/ha): 40% | pest or weed control at 31 g/ha ([12]; 31 g ai/ha): 70% | pest or weed control at 62 g/ha ([12]; 62 g ai/ha): 70% | pest or weed control at 125 g/ha ([12]; 125 g ai/ha): 100% | pest or weed control at 16 g/ha ([13]; 16 g ai/ha): 0% | pest or weed control at 31 g/ha ([13]; 31 g ai/ha): 30% | pest or weed control at 62 g/ha ([13]; 62 g ai/ha): 75% | pest or weed control at 125 g/ha ([13]; 125 g ai/ha): 95% | Corn plant response rating (crop injury, 0 = no effect, 100 = complete kill) at 16 g/ha ([14]; 16 g ai/ha): 5% | Corn plant response rating (crop injury, 0 = no effect, 100 = complete kill) at 31 g/ha ([14]; 31 g ai/ha): 5% | Corn plant response rating (crop injury, 0 = no effect, 100 = complete kill) at 62 g/ha ([14]; 62 g ai/ha): 5% | Corn plant response rating (crop injury, 0 = no effect, 100 = complete kill) at 125 g/ha ([14]; 125 g ai/ha): 5% | pest or weed control at 16 g/ha ([15]; 16 g ai/ha): 90% | pest or weed control at 31 g/ha ([15]; 31 g ai/ha): 95% | pest or weed control at 62 g/ha ([15]; 62 g ai/ha): 100% | pest or weed control at 125 g/ha ([15]; 125 g ai/ha): 100% | plant injury at 31 g/ha ([16]; 31 g ai/ha): 55% | plant injury at 62 g/ha ([16]; 62 g ai/ha): 75% | plant injury at 125 g/ha ([16]; 125 g ai/ha): 70% | plant injury at 31 g/ha ([17]; 31 g ai/ha): 50% | plant injury at 62 g/ha ([17]; 62 g ai/ha): 65% | plant injury at 125 g/ha ([17]; 125 g ai/ha): 50% | pest or weed control at 16 g/ha ([18]; 16 g ai/ha): 5% | pest or weed control at 31 g/ha ([18]; 31 g ai/ha): 5% | pest or weed control at 62 g/ha ([18]; 62 g ai/ha): 15% | pest or weed control at 125 g/ha ([18]; 125 g ai/ha): 35% | pest or weed control at 16 g/ha ([19]; 16 g ai/ha): 0% | pest or weed control at 31 g/ha ([19]; 31 g ai/ha): 5% | pest or weed control at 62 g/ha ([19]; 62 g ai/ha): 10% | pest or weed control at 125 g/ha ([19]; 125 g ai/ha): 45% | pest or weed control at 31 g/ha ([20]; 31 g ai/ha): 55% | pest or weed control at 62 g/ha ([20]; 62 g ai/ha): 75% | pest or weed control at 125 g/ha ([20]; 125 g ai/ha): 85% | pest or weed control at 31 g/ha ([21]; 31 g ai/ha): 85% | pest or weed control at 62 g/ha ([21]; 62 g ai/ha): 80% | pest or weed control at 125 g/ha ([21]; 125 g ai/ha): 80% | pest or weed control at 31 g/ha ([22]; 31 g ai/ha): 70% | pest or weed control at 62 g/ha ([22]; 62 g ai/ha): 80% | pest or weed control at 125 g/ha ([22]; 125 g ai/ha): 90%
